According to patent US12590953B2, “Methods for screening cereblon modifying compounds” (CELGENE CORPORATION, priority 2018, dated 2026):
Peptide text beside a SMILES is read from it. * marks the point of attachment. Cbz = O=C(OCc1ccccc1)*

Legend:
[1] = molecular target: T1, SALL4 (Homo sapiens, UniProt Q96SW2+Q9UJQ4); experiment: SALL4 protein level in human iPS cells, immunoblot; type: cell-based; details: human iPS cells; 1 μM MLN4924 or 10 μM MG132 for 6 hours with thalidomide
T1 construct: host or cells: human iPS cells (CRBN wild-type and CRBN knock-out)
T1 sequence (Q9UJQ4 whole entry): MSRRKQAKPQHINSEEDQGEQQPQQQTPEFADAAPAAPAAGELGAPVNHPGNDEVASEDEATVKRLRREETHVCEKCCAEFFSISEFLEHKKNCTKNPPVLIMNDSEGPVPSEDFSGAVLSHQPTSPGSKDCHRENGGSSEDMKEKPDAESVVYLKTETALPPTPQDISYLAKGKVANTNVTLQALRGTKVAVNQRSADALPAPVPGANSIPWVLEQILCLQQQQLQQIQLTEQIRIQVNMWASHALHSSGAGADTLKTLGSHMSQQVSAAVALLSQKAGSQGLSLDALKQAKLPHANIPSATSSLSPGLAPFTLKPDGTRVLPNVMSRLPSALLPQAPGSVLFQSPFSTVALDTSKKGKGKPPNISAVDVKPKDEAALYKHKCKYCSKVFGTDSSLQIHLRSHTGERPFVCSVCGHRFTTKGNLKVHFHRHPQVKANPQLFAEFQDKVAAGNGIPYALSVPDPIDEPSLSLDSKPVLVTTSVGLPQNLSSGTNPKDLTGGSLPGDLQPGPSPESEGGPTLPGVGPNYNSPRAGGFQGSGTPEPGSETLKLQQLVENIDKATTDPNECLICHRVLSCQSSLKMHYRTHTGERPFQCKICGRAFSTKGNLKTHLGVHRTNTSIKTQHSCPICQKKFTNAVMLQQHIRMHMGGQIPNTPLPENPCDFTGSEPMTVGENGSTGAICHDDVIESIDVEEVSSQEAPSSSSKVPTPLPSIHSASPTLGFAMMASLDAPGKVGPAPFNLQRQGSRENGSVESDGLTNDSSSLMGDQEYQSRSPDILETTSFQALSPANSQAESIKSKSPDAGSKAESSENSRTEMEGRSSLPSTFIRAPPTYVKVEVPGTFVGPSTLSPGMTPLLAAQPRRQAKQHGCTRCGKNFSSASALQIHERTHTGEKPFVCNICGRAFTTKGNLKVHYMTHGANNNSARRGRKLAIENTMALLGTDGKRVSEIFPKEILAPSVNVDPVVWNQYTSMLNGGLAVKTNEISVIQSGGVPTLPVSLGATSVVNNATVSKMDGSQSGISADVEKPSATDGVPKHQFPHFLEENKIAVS
T1 sequence (Q96SW2 whole entry): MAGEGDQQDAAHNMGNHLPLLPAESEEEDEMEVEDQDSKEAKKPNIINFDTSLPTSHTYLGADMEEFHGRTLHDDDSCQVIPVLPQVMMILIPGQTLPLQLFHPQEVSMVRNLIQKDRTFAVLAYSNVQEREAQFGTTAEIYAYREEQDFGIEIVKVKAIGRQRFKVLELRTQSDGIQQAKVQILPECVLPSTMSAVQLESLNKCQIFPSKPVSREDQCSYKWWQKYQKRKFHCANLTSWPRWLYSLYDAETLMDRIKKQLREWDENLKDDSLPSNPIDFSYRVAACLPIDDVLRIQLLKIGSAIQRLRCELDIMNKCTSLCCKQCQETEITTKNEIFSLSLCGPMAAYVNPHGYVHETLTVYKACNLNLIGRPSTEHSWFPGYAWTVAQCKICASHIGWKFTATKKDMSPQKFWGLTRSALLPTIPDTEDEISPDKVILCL
T1 sequence (Q16531 whole entry partner): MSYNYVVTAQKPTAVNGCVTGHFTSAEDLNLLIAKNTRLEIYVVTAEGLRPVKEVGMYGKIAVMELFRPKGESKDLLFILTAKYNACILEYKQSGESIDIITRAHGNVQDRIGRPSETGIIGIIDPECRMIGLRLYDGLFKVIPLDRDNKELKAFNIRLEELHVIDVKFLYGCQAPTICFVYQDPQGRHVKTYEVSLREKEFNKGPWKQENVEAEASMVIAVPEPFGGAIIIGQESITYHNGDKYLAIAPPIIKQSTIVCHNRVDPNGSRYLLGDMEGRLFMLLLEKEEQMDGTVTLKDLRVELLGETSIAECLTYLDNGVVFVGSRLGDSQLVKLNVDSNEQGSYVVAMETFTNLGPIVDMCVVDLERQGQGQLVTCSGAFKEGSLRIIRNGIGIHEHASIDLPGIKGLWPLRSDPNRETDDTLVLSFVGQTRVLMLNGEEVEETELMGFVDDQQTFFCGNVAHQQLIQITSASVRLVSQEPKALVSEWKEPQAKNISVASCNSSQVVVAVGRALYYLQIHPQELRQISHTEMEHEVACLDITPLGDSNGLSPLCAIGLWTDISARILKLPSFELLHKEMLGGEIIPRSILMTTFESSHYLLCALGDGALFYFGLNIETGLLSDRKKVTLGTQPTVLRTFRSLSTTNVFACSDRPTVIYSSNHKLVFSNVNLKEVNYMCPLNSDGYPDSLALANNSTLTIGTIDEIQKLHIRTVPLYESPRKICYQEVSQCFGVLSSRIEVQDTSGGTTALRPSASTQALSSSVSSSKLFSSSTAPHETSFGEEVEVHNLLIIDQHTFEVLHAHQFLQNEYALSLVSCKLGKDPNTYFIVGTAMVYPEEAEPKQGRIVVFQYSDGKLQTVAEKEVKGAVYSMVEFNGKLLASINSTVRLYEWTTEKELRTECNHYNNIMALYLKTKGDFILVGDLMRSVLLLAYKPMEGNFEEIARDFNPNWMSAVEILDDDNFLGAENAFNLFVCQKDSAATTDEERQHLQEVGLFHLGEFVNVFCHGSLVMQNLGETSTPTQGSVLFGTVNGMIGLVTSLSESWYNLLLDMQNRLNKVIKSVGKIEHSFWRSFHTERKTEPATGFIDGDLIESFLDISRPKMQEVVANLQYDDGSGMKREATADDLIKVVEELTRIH
Description: Immunoblot analysis of whole cell lysates of CRBN wild-type (WT) and CRBN knock-out (−/−) human iPS cells was performed. Cells were treated with DMSO vehicle control (−) or thalidomide (Thal) at indicated concentrations for 16 hours (n=4, biological replicates).
Immunoblot analysis of whole cell lysates of human iPS cells treated with DMSO (−) or Thal (+) in the presence or absence of 1 μM MLN4924 or 10 μM MG132 for 6 hours were performed (n=2, biological replicates).
Human iPS cell lines ACS-1019 and ACS-1011 (derived from healthy donors) were obtained from ATCC. The hiPSCs were maintained in mTESR-1 medium (Stem Cell Technologies) in cell culture plates coated with a thin layer of Matrigel (BD Biosciences) incubated at 37° C. in a humidified 5% CO2 incubator according to the manufacturer's instruction. Cells were split through mechanic passaging with a glass pipet and enzymatically digestion with Dispase or Accutase every 2 to 3 days.
Human iPSCs, ACS-1019 was transduced with lentiviral vectors expressing CRISPR-Cas9 and small guide RNA targeting cereblon for 4 days. The resulting colonies were amplified and screened for cereblon knockout by immunoblot analysis with anti-CRBN65 antibody (Celgene).

[2] = molecular target: T2, ZFP91 (Homo sapiens, UniProt Q96JP5+Q96SW2); experiment: Degradation of ZFP91 in Lenti-x 293 cells (control substrate); type: cell-based; details: Lenti-x 293 cell lines expressing cereblon
T2 construct: endogenous in cells; host or cells: Lenti-x 293 cell line with CRISPR-cas9 cereblon knock-out, transfected with GST-cereblon
T2 sequence (Q96JP5 2-570 limits assumed): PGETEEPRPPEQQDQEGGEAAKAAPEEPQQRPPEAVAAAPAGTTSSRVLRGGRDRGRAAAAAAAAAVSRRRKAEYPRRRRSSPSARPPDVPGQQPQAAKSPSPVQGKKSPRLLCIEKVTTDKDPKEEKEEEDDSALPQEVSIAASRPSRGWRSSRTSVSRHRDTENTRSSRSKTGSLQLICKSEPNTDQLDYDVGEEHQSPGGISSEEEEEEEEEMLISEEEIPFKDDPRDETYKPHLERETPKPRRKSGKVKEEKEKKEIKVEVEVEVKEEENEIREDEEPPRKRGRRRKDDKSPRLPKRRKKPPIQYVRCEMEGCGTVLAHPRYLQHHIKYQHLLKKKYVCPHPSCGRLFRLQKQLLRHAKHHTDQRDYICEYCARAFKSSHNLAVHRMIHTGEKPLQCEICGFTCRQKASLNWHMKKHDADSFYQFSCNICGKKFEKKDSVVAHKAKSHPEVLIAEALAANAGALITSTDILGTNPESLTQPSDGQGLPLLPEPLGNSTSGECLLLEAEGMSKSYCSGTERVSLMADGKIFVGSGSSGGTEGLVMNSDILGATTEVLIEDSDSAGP
T2 sequence (Q96SW2 whole entry): as the sequence (Q96SW2 whole entry) above
T2 sequence (Q16531 whole entry partner): as the sequence (Q16531 whole entry partner) above

[3] = tested on: SALL4 binding to cereblon; type: cell-based, human
Description: Binding of full length SALL4 to cereblon in cells was then tested by co-immunoprecipitation (see FIG. 3). HA-tagged WT, G416A, or G600A SALL4 was immunoprecipitated from cells, and the level of co-purifying cereblon was assessed by western blot. Briefly, a Lenti-x 293 cell line with a CRISPR-cas9 knock-out of cereblon and stable expression of HA-tagged SALL4 or SALL4 mutants was transfected with either GST-cereblon or empty vector. […] The amount of co-purifying GST-cereblon was then assessed by western blot.

[4] = molecular target: T3, endogenous SALL4 in NCCIT, NETRA-2 c1.D1 and AN3-CA cancer cell lines (Homo sapiens, UniProt Q96SW2+Q9UJQ4); experiment: Degradation of endogenous SALL4 in cancer cell lines, western blot; type: cell-based; details: 16 hour treatment; anti-SALL4 western blot
T3 construct: endogenous in cells; host or cells: NCCIT, NETRA-2 c1.D1 and AN3-CA cancer cell lines

SMILES | Effect on thalidomide-induced reduction in SALL4 protein levels [1] | ZFP91 degradation [2] | Binding of G416A SALL4 to cereblon ([3]; HA-tagged G416A SALL4, anti-HA pull-down) | Binding of G600A SALL4 to cereblon ([3]; HA-tagged G600A SALL4, anti-HA pull-down) | Binding of WT SALL4 to cereblon (co-purifying GST-cereblon, western blot) ([3]; HA-tagged WT SALL4, anti-HA pull-down) | Degradation of endogenous SALL4 [4]
CC(C)C[C@@H](C=O)NC(=O)[C@H](CC(C)C)NC(=O)[C@H](CC(C)C)NC(=O)OCc1ccccc1 [MG132] (Cbz-Leu-Leu-Leu-aldehyde) | prevented | – | – | – | – | –
NS(=O)(=O)OC[C@@H]1C[C@@H](n2ccc3c(N[C@H]4CCc5ccccc54)ncnc32)C[C@@H]1O [MLN4924] | prevented | – | – | – | – | –
Nc1cccc2c1C(=O)N(C1CCC(=O)NC1=O)C2=O (stereo not shown) [pomalidomide] | – | exhibited compound-dependent degradation in all cell lines expressing cereblon | disrupted the binding significantly | strong, compound-dependent binding to cereblon | strong, compound-dependent binding to cereblon | Significant compound-dependent degradation of endogenous SALL4 was observed
